Laboratory results reported in PubChem BioAssay AID248 (DTP/NCI, 2004).
Toxic doses and inconclusive results are not listed.

Tested on: L1210 leukemia ip in BDF1 mice, survival T/C
Assay: NCI In Vivo Anticancer Drug Screen. Data for tumor model L1210 Leukemia (intraperitoneal) in B6D2F1 (BDF1) mice
Details: endpoint: mean survival time, higher = longer survival
Outline: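 Survival endpoint. Drug-treated group vs vehicle group, expressed as T divided by C. Tumor passaged by transplantation.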

[1] = dose: 100.0 mg/kg/injection, schedule: Q04DX002 (ip), vehicle: Klucel (hydroxypropylcellulose) (HPC)

Question: For `Cc1cn(C)c2nccnc12`, which T/C (dose: 25.0 mg/kg/injection, schedule: Q01DX009 (ip), vehicle: water) is on record?
Answer: 104 % of control

Question: And the T/C (dose: 50.0 mg/kg/injection, schedule: Q01DX009 (ip), vehicle: water)?
Answer: 110 % of control

Question: And the T/C (dose: 100.0 mg/kg/injection, schedule: Q01DX009 (ip), vehicle: water)?
Answer: 98 % of control

Question: What does the source list for `O=C1c2ccccc2-c2cc(Cl)c([N+](=O)[O-])cc21`?
Answer: T/C (dose: 50.0 mg/kg/injection, schedule: Q01DX001 (ip), vehicle: carboxymethylcellulose (CMC)): 98 % of control; T/C (dose: 100.0 mg/kg/injection, schedule: Q01DX001 (ip), vehicle: carboxymethylcellulose (CMC)): 96 % of control; T/C (dose: 200.0 mg/kg/injection, schedule: Q01DX001 (ip), vehicle: carboxymethylcellulose (CMC)): 98 % of control; T/C (dose: 400.0 mg/kg/injection, schedule: Q01DX001 (ip), vehicle: carboxymethylcellulose (CMC)): 91 % of control

Question: For `C[C@H](OC(=O)CCl)[C@@H](C)OC(=O)CCl`, which T/C (dose: 50.0 mg/kg/injection, schedule: Q01DX001 (sc), vehicle: carboxymethylcellulose (CMC)) is on record?
Answer: 109 % of control

Question: And the T/C (dose: 100.0 mg/kg/injection, schedule: Q01DX001 (sc), vehicle: carboxymethylcellulose (CMC))?
Answer: 88 % of control

Question: `CS(=O)(=O)N1CC(O)CN(S(C)(=O)=O)CC(O)C1` (centres undefined) was tested. Which T/C (dose: 25.0 mg/kg/injection, schedule: Q04DX002 (ip), vehicle: Klucel (hydroxypropylcellulose) (HPC)) did it give?
Answer: 100 % of control

Question: And the T/C (dose: 50.0 mg/kg/injection, schedule: Q04DX002 (ip), vehicle: Klucel (hydroxypropylcellulose) (HPC))?
Answer: 100 % of control

Question: What about the T/C [1] of the same compound?
Answer: 110 % of control

Question: How did the T/C (dose: 75.0 mg/kg/injection, schedule: Q01DX001 (ip), vehicle: acetone) turn out when `CCc1ccc(C(O)C(=O)O)cc1` (centres undefined) was run?
Answer: 90 % of control

Question: What about the T/C (dose: 150.0 mg/kg/injection, schedule: Q01DX001 (ip), vehicle: acetone) of the same compound?
Answer: 94 % of control

Question: Which T/C (dose: 50.0 mg/kg/injection, schedule: Q01DX009 (ip), vehicle: saline) does the source give for `CCC(C(=O)O)c1ccccc1` (centres undefined) here?
Answer: 93 % of control

Question: What about the T/C (dose: 100.0 mg/kg/injection, schedule: Q01DX009 (ip), vehicle: saline) of the same compound?
Answer: 97 % of control

Question: What about the T/C (dose: 100.0 mg/kg/injection, schedule: Q04DX003 (ip), vehicle: saline) of the same compound?
Answer: 89 % of control

Question: What about the T/C (dose: 200.0 mg/kg/injection, schedule: Q01DX009 (ip), vehicle: saline) of the same compound?
Answer: 90 % of control

Question: And the T/C (dose: 200.0 mg/kg/injection, schedule: Q04DX003 (ip), vehicle: saline)?
Answer: 90 % of control

Question: And the T/C (dose: 400.0 mg/kg/injection, schedule: Q04DX003 (ip), vehicle: saline)?
Answer: 95 % of control

Question: Which T/C (dose: 100.0 mg/kg/injection, schedule: Q04DX002 (ip), vehicle: saline with Tween-80) does the source give for `CCCCCCCCOC(=O)COc1cccc(C)c1` here?
Answer: 103 % of control

Question: And the T/C (dose: 200.0 mg/kg/injection, schedule: Q04DX002 (ip), vehicle: saline with Tween-80)?
Answer: 100 % of control

Question: What about the T/C (dose: 400.0 mg/kg/injection, schedule: Q04DX002 (ip), vehicle: saline with Tween-80) of the same compound?
Answer: 100 % of control

Question: What does the source list for `CC12C(=O)OC(=O)C1C1C=CC2C1` (centres undefined)?
Answer: T/C [1]: 102 % of control; T/C (dose: 100.0 mg/kg/injection, schedule: Q04DX003 (ip), vehicle: other): 98 % of control; T/C (dose: 200.0 mg/kg/injection, schedule: Q04DX002 (ip), vehicle: Klucel (hydroxypropylcellulose) (HPC)): 102 % of control; T/C (dose: 200.0 mg/kg/injection, schedule: Q04DX003 (ip), vehicle: other): 102 % of control

Question: `COc1cccc2c1C(=O)c1c(O)c3c(c(O)c1C2=O)C[C@@](O)(C(=O)COC(C)=O)C[C@@H]3OC1CC(N)C(O)C(C)O1` (some centres undefined) was tested. Which T/C (dose: 0.45 mg/kg/injection, schedule: Q04DX003 (ip), vehicle: saline) did it give?
Answer: 120 % of control

Question: What about the T/C (dose: 0.7 mg/kg/injection, schedule: Q04DX003 (ip), vehicle: saline) of the same compound?
Answer: 167 % of control

Question: And the T/C (dose: 1.6 mg/kg/injection, schedule: Q04DX003 (ip), vehicle: saline)?
Answer: 111 % of control

Question: What about the T/C (dose: 2.4 mg/kg/injection, schedule: Q04DX003 (ip), vehicle: saline) of the same compound?
Answer: 104 % of control

Question: Which results are given for `Cn1cnc([N+](=O)[O-])c1Sc1nc(N)nc2c1ncn2C1CC(O)C(CO)O1` (centres undefined)?
Answer: T/C (dose: 6.25 mg/kg/injection, schedule: Q01DX005 (ip), vehicle: saline): 155 % of control; T/C (dose: 12.5 mg/kg/injection, schedule: Q01DX005 (ip), vehicle: saline): 173 % of control; T/C (dose: 25.0 mg/kg/injection, schedule: Q01DX005 (ip), vehicle: saline): 150 % of control; T/C (dose: 100.0 mg/kg/injection, schedule: Q01DX005 (ip), vehicle: saline): 94 % of control; T/C (dose: 200.0 mg/kg/injection, schedule: Q01DX005 (ip), vehicle: saline): 107 % of control; T/C (dose: 240.0 mg/kg/injection, schedule: Q01DX005 (ip), vehicle: saline): 122 % of control; T/C (dose: 600.0 mg/kg/injection, schedule: Q01DX005 (ip), vehicle: saline): 115 % of control

Question: For `CCC(CO)NC(=O)/C=C/c1ccc(Cl)cc1` (centres undefined), which T/C (dose: 100.0 mg/kg/injection, schedule: Q01DX001 (ip), vehicle: saline with Tween-80) is on record?
Answer: 101 % of control

Question: And the T/C (dose: 100.0 mg/kg/injection, schedule: Q04DX003 (ip), vehicle: saline with Tween-80)?
Answer: 110 % of control

Question: And the T/C (dose: 200.0 mg/kg/injection, schedule: Q01DX001 (ip), vehicle: saline with Tween-80)?
Answer: 100 % of control

Question: What about the T/C (dose: 200.0 mg/kg/injection, schedule: Q04DX003 (ip), vehicle: saline with Tween-80) of the same compound?
Answer: 108 % of control

Question: And the T/C (dose: 400.0 mg/kg/injection, schedule: Q01DX001 (ip), vehicle: saline with Tween-80)?
Answer: 92 % of control

Question: And the T/C (dose: 400.0 mg/kg/injection, schedule: Q04DX003 (ip), vehicle: saline with Tween-80)?
Answer: 98 % of control
